Laboratory results published in paper PMC7844219, “Antifibrotic effect of novel neutrophil gelatinase-associated lipocalin inhibitors in cardiac and renal disease models” (Scientific Reports, 2021).

Experiments:
hNGAL [1] = target: T1, hNGAL (Homo sapiens, UniProt P80188); assay: hNGAL-induced IL6 and Col I secretion in human cardiac fibroblasts (ELISA); assay type: cell-based; design: % inhibition versus hNGAL on IL-6 secretion: concentration or dose not given beside the values; details: for IL-6 secretion: hNGAL-treated human cardiac fibroblasts, mean ± SEM
T1 construct: purchased R&D Systems
T1 sequence (P80188 21-198): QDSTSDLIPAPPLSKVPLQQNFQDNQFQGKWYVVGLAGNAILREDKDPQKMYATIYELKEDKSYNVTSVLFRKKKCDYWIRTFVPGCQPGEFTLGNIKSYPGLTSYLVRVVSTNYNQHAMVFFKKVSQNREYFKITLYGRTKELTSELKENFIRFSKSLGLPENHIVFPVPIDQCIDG
Protocol: (§1) Primary human cardiac fibroblasts (HCF) were obtained from Promocell (Heidelberg, Germany) and maintained in Fibroblast Media 3 following manufacturer’s instructions (Promocell). Cells were used between passages 5 and 7. Cells were stimulated with recombinant hNGAL (500 ng/mL, R&D Systems) or with TGFβ (10 ng/mL, R&D Systems) for 24 h. To assess cell proliferation the MTT test was used following provider’s instructions (Roche). For protein analysis. Primary Mouse Kidney Fibroblasts (MKF) were isolated from Wild Type (WT) mice. Briefly, 8 weeks old mice were sacrificed by cervical dislocation and kidneys were cleaned and rinsed in cold DPBS (Dulbecco's Phosphate-Buffered Saline). The renal cortex was minced and incubated in Dulbecco’s modified eagle medium/Nutrient mixture F-12 (DMEM/F12, Sigma) containing 1 mg/mL collagenase A (Roche) during 25 min at 37 °C. The digestion was inactivated by adding culture medium (DMEM/F12 + 10% FBS) then the cell suspension was passed through a 100-μm cell strainer. After centrifugation, the pellet (containing MKF) was diluted with culture medium then plated in 75 cm^2 culture flask. After 24 h MKF were washed with DPBS before replacement of fresh culture medium. Thereafter, culture medium was changed every 48 h. Once 70–80% confluent, MKF were trypsinized and plated in 12 or 6-well plates. For experimental use, MKF were starved with culture medium containing only 3% FBS. MKF were treated with mNGAL (500 ng/mL, R&D Systems) or with TGFβ (10 ng/mL, R&D Systems) for 6 h for gene expression analysis.
IL6 and collagen type I concentrations were measured in cardiac tissue and cell supernatants by ELISA according to the manufacturer's instructions (R&D Systems).

hNGAL [2] = target: T1, hNGAL; assay: hNGAL-induced intracellular profibrotic protein levels in human cardiac fibroblasts (Western blot); assay type: cell-based; design: % inhibition versus hNGAL on Col I protein level / % inhibition versus hNGAL on Col III protein level / % inhibition versus hNGAL on Fibronectin protein level / % inhibition versus hNGAL on Galectin 3 protein level: concentration or dose not given beside the values
Protocol: as §1
Total protein aliquots of 20 μg were prepared from cardiac homogenates and HCF and electrophoresed on SDS polyacrylamide gels and transferred to Hybond-c Extra nitrocellulose membranes (Amersham Biosciences). Membranes were incubated with primary antibodies for: Collagen I (Santa Cruz; dilution 1:500), Collagen type III (Santa Cruz; dilution 1:500), fibronectin (Millipore, 1:500), Galectin-3 (Thermo, 1:1000), α-SMA (Sigma, 1:1000), CTGF (Santa Cruz, 1:200), CD68 (Abcam, 1:500), CD80 (Santa Cruz, 1:500), CD86 (Santa Cruz, 1:500). […] After densitometric analyses, optical density values were expressed as arbitrary units. Results are expressed as an n-fold increase over the values of the control group in densitometric arbitrary units.

human plasma protein = assay: Binding to human plasma protein; assay type: in vitro ADME
Protocol: Several parameters have been evaluated to determine ADME-Tox profile of the compounds. Two specific toxicity assays have been performed to assess hepatoxicity and cardiotoxicity. Hepatotoxicity was evaluated in isolated hepatocytes from swiss mice and determined by the thiazolyl blue tetrazolium bromide colorimetric assay (sigma, St Louis, MO, USA). Cardiotoxicity was evaluated using the commercially available Predictor hERG fluorescence polarization kit (Thermo Fisher Scientific, Illinois, USA). Several absorption, distribution, metabolism, and excretion (ADME) assays have been carried out. The following experiments were undertaken: stability in human microsomes, binding to human plasma protein, and CYP3A4 inhibition assay (Vivid CYP3A4 assay, Thermo Fisher Scientific, Illinois, USA). Physico-chemical properties were also assessed such as aqueous solubility and chemical stability.

[3] = 10 µM, human cardiac fibroblasts, Fig. 1C
[4] = Table S2, human cardiac fibroblasts

Structure (SMILES): CC(=O)c1cccc(S(=O)(=O)NCc2ccccc2-n2cccn2)c1 [GPZ614741]
- Increase in IL6 secretion induced by NGAL (hNGAL [1]; 1 µM, human cardiac fibroblasts, Fig. S3): did not prevent
- NGAL-induced Col I secretion, in words (hNGAL [1]; [3]): fully inhibited
- NGAL-induced IL6 secretion, in words (hNGAL [1]; [3]): fully inhibited
- IL-6 secretion (hNGAL [1]; Table S1, first generation compounds, Control 1.0 ± 0.1, NGAL 2.21 ± 0.2): 0.86 ± 0.2
- % inhibition versus hNGAL on IL-6 secretion (hNGAL [1]; Table S1, first generation compounds, human cardiac fibroblasts): 61.1%
- IL-6 secretion (hNGAL [1]; Table S4, second generation compounds and parents, Control 1.00, NGAL 1.45): 0.59 ± 0.02
- % inhibition versus hNGAL on IL-6 secretion (hNGAL [1]; Table S4, second generation compounds and parents, human cardiac fibroblasts): 59.5%
- Inhibitor effect on hNGAL-induced IL6 secretion, in words (hNGAL [1]; human cardiac fibroblasts, text on Tables S1 and S4): important inhibitor effect
- hNGAL-induced expression of intracellular profibrotic proteins (Col I, Col III, fibronectin, Gal3), in words (hNGAL [2]; 10 µM, human cardiac fibroblasts, Fig. 1D): blocked
- Col III synthesis (protein level) (hNGAL [2]; Table S2, hNGAL-treated human cardiac fibroblasts, Control 1.0, NGAL 1.67, mean ± SEM): 1.05 ± 0.1
- Fibronectin synthesis (protein level) (hNGAL [2]; Table S2, hNGAL-treated human cardiac fibroblasts, Control 1.0, NGAL 1.8, mean ± SEM): 0.95 ± 0.2
- Col I synthesis (protein level) (hNGAL [2]; Table S2, hNGAL-treated human cardiac fibroblasts, Control 1.0, NGAL 2.03, mean ± SEM): 1.09 ± 0.2
- Galectin-3 synthesis (protein level) (hNGAL [2]; Table S2, hNGAL-treated human cardiac fibroblasts, Control 1.0, NGAL 2.1, mean ± SEM): 1.3 ± 0.1
- % inhibition versus hNGAL on Col I protein level (hNGAL [2]; [4]): 46.4%
- % inhibition versus hNGAL on Col III protein level (hNGAL [2]; [4]): 37.1%
- % inhibition versus hNGAL on Fibronectin protein level (hNGAL [2]; [4]): 47.2%
- % inhibition versus hNGAL on Galectin 3 protein level (hNGAL [2]; [4]): 38.1%
- Plasma protein binding (PPB), in words (human plasma protein): low
- hPPB% (human plasma protein; Table S5, human plasma protein binding): 71.16%
